Results as given in patent US9212168B2 (priority 2011, dated 2015).

How the values were obtained:
HCV genotype 1b replicon = HCV genotype 1b replicon assay (Renilla luciferase readout); type: cell-based, hepatitis C virus; conditions: for Genotype 1b: HCV genotype 1b replicon; for EC50: Hepatitis C virus, read-out: Genotype 1b
Excerpt: Assay 1: HCV Genotype 1b Replicon Assay
The HCV genotype 1b replicon cell line was obtained from Apath LLC (Brooklyn, N.Y.) (APC144; Huh7 cell background). This subgenomic replicon contains the N-terminus of the HCV core protein fused to the neomycin-resistance selectable marker. The EMCV IRES lies downstream and drives expression of humanized Renilla luciferase fused to the non-structural proteins NS3-NS5B. This cell line was used to determine compound potency using the luciferase activity readout as a measurement of compound inhibition of replicon levels.
Cells were grown at 37° C. in a 5% CO2 humidified incubator in DMEM (Invitrogen) with 10% FBS (HyClone), 1×NEAA (Invitrogen), 1× Pen-Strep (Invitrogen), and 500 μg/mL G418 (Invitrogen). On day 1 of the assay, cells were plated at 10,000 cells/well in white 96-well tissue culture plates (Costar) in 200 μL media lacking G418. Four hours later, once the cells have adhered, the media was removed and replaced with media (no G418) containing dose-responses of test compounds. Compounds were initially diluted in DMSO and then diluted another 200× in media to bring the final DMSO concentration down to 0.5%. The cells were incubated with test compounds for 48 hours. At the end of the incubation period, media and compound were removed from the plates and the luciferase activity was determined using Promega Renilla-Glo reagents.
To analyze the data, the luciferase activity was plotted vs. the compound concentration, and EC50 values were determined from a 4-parameter robust fit model with the GraphPad Prism software package (GraphPad Software, Inc., San Diego, Calif.). Results are expressed as the negative decadic logarithm of the EC50 value, pEC50.
Test compounds having a higher pEC50 value in this assay show greater inhibition of HCV genotype 1b replication.

HCV genotype 1a replicon = HCV genotype 1a replicon assay (NS3 protease activity readout); type: cell-based, hepatitis C virus; conditions: for Genotype 1a: HCV genotype 1a replicon; for EC50: Hepatitis C virus, read-out: Genotype 1a, HCV genotype 1a replicon
Summary of the method: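 EC50 values came from a 4-parameter robust fit of fluorescence (ex 340, em 509 nm) produced by NS3-specific protease in lysates, assayed with 15 μM FRET substrate for 20 min at 37° C, after 48 or 72 hours of compound exposure (0.5% DMSO) of Huh7.5-derived APC89 genotype 1a replicon cells.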

In the case of `CNC(=O)N1C[C@@H](C)N(c2ccc(C(=O)Nc3cc(OC(F)(F)F)c(-c4ccc(-c5c[nH]c([C@@H]6C[C@H](C)CN6C(=O)[C@@H](NC(=O)OC)C(C)C)n5)cc4)cc3F)cn2)C[C@@H]1C` [Example 1-16], the “Genotype 1b” value (HCV genotype 1b replicon) is reported as “D (D represents pEC50>10 (EC50<0.1 nM))” and the “Genotype 1a” value (HCV genotype 1a replicon) is reported as “D (D represents pEC50>10 (EC50<0.1 nM))”.

For `CNC(=O)N1CCN(c2ccc(C(=O)Nc3cc(OC(F)(F)F)c(-c4ccc(-c5c[nH]c([C@@H]6C[C@H](C)CN6C(=O)[C@@H](NC(=O)OC)C(C)C)n5)cc4)cc3Cl)cn2)[C@H](C)C1` [Example 1-17], the “Genotype 1b” value (HCV genotype 1b replicon) was “D (D represents pEC50>10 (EC50<0.1 nM))” and the “Genotype 1a” value (HCV genotype 1a replicon) was “D (D represents pEC50>10 (EC50<0.1 nM))”.

In the case of `COC(=O)N[C@H](C(=O)N1C[C@@H](C)C[C@H]1c1nc(-c2ccc(-c3cc(Cl)c(NC(=O)c4ccc(N5CCN(C(=O)C(C)(C)C)[C@H](C)C5)nc4)cc3OC(F)(F)F)cc2)c[nH]1)C1CCOCC1` [Example 20-6], the “Genotype 1b” value (HCV genotype 1b replicon) is reported as “D (D represents pEC50>10 (EC50<0.1 nM))” and the “Genotype 1a” value (HCV genotype 1a replicon) is reported as “D (D represents pEC50>10 (EC50<0.1 nM))”.

With `COC(=O)NC(C(=O)N1CC(C)CC1c1nc(-c2ccc(-c3ccc(NC(=O)c4ccc(N5CCN(C(=O)C(C)(C)CO)CC5C)nc4)cc3OC(F)(F)F)cc2)c[nH]1)C(C)OC` (stereo not drawn) [Example 13-31] the “Genotype 1b” value (HCV genotype 1b replicon) was “D (D represents pEC50>10 (EC50<0.1 nM))” and the “Genotype 1a” value (HCV genotype 1a replicon) was “D (D represents pEC50>10 (EC50<0.1 nM))”.

In the case of `COC(=O)N[C@H](C(=O)N1C[C@@H](C)C[C@H]1c1nc(-c2ccc(-c3ccc(C(=O)Nc4ccc(N5CCN(C(=O)C(C)(C)C)C[C@H]5C)nc4)cc3OC(F)(F)F)cc2)c[nH]1)C1CCOCC1` [Example 22-3], the “Genotype 1b” value (HCV genotype 1b replicon) is reported as “D (D represents pEC50>10 (EC50<0.1 nM))” and the “Genotype 1a” value (HCV genotype 1a replicon) is reported as “D (D represents pEC50>10 (EC50<0.1 nM))”.

In the case of `COC(=O)NC(C(=O)N1CC(C)CC1c1nc(-c2ccc(-c3cc(Cl)c(NC(=O)c4ccc(N5CCN(C(=O)C(C)(C)C)CC5C)nc4)cc3C(F)(F)F)cc2)c[nH]1)C1CC(C)OC(C)C1` (stereo not drawn) [Example 19-9], the “Genotype 1b” value (HCV genotype 1b replicon) is reported as “D (D represents pEC50>10 (EC50<0.1 nM))” and the “Genotype 1a” value (HCV genotype 1a replicon) is reported as “D (D represents pEC50>10 (EC50<0.1 nM))”.

For `CNC(=O)N1CCN(c2ccc(C(=O)Nc3cc(C(F)(F)F)c(-c4ccc(-c5c[nH]c([C@@H]6C[C@H](C)CN6C(=O)[C@@H](NC(=O)OC)C(C)C)n5)cc4)cc3Cl)cn2)[C@H](C)C1` [Example 1-30], the “Genotype 1b” value (HCV genotype 1b replicon) was “D (D represents pEC50>10 (EC50<0.1 nM))” and the “Genotype 1a” value (HCV genotype 1a replicon) was “D (D represents pEC50>10 (EC50<0.1 nM))”.

Molecule `COC(=O)N[C@H](C(=O)N1C[C@@H](N(C)C)C[C@H]1c1nc(-c2ccc(-c3ccc(C(=O)Nc4ccc(N5CCN(C(=O)C6CC6(C)C)C[C@H]5C)nc4)cc3)cc2)c[nH]1)C(C)C` (stereo partly drawn) [Example 6-5] has an EC50 (HCV genotype 1b replicon) of under 0.1 nM and an EC50 (HCV genotype 1a replicon) of 0.1 to 1 nM.

Work on `COC(=O)N[C@H](C(=O)N1C[C@@H](SC)C[C@H]1c1nc(-c2ccc(-c3cc(Cl)c(C(=O)Nc4ccc(N5CCN(C(=O)C(C)(C)C)C[C@H]5C)nc4)cc3OC(F)(F)F)cc2)c[nH]1)C(C)C` [Example 5-3] yielded an EC50 (HCV genotype 1b replicon) of under 0.1 nM and an EC50 (HCV genotype 1a replicon) of under 0.1 nM.

With `COC(=O)N[C@H](C(=O)N1C[C@@H](OC)C[C@H]1c1nc(-c2ccc(-c3cc(Cl)c(NC(=O)c4ccc(N5C[C@H](C)N(C(=O)[C@H]6CC6(C)C)C[C@H]5C)nc4)cc3OC(F)(F)F)cc2)c[nH]1)C1CCOCC1` [Example 28-6] the “Genotype 1b” value (HCV genotype 1b replicon) was “D (D represents pEC50>10 (EC50<0.1 nM))” and the “Genotype 1a” value (HCV genotype 1a replicon) was “D (D represents pEC50>10 (EC50<0.1 nM))”.

For `COC(=O)N[C@H](C(=O)N1[C@@H](C)CC[C@H]1c1nc(-c2ccc(-c3cc(Cl)c(C(=O)Nc4ccc(N5CCN(C(=O)C(C)(C)C)C[C@H]5C)nc4)cc3OC(F)(F)F)cc2)c[nH]1)C1CCOCC1` [Example 18-5], the “Genotype 1b” value (HCV genotype 1b replicon) was “D (D represents pEC50>10 (EC50<0.1 nM))” and the “Genotype 1a” value (HCV genotype 1a replicon) was “D (D represents pEC50>10 (EC50<0.1 nM))”.

`COC(=O)N[C@H](C(=O)N1C[C@@H](C)C[C@H]1c1nc(-c2ccc(-c3cc(Cl)c(NC(=O)c4ccc(N5CCN(C(=O)C(C)(C)CO)C[C@H]5C)nc4)cc3OC(F)(F)F)cc2)c[nH]1)C(C)C` [Example 12-8] was tested, and the EC50 (HCV genotype 1b replicon) was under 0.1 nM and the EC50 (HCV genotype 1a replicon) was under 0.1 nM.
